# From paper PMC9652372, “Glycolytic flux control by drugging phosphoglycolate phosphatase” (Nature Communications, 2022)
# Positions count from the first letter of the chain named. Where “and” joins values, the source holds several entries; their conditions need not be identical. Identical values can stand only once. Entries after “also recorded” stand apart in the source; their conditions may differ.
# How the values were obtained:
# HT1080 cells [1] = assay: Cell viability assay (AquaBluer); assay type: cell-based, human
# Protocol: Cell viability was assessed using AquaBluer according to the manufacturer’s recommendations (MultiTarget Pharmaceuticals, LLC). Fluorescence (excitation: 540 nm; emission: 590 nm) was analyzed on a Clariostar microplater reader.
# HT1080 cells [2] = assay: Cell proliferation assay (EdU incorporation); assay type: cell-based, human
# Protocol: Parental HT1080 cells or the indicated CRISPR/Cas9-engineered control (PGP-WT) or PGP-KO cells were grown in complete DMEM. For the expression of PGP-WT or PGP-P127E, cells were transfected with either the pcDNA3 empty vector control or the indicated constructs in pcDNA3 using X-tremeGENE (Roche/Merck), according to the manufacturer’s instructions. […] To assess DNA synthesis, cells were labeled for 2.5 h with 10 μM 5-ethynyl-2'-deoxyuridine (EdU), fixed and permeabilized according to the manufacturer’s recommendations (Click-iT EdU Alexa Fluor 488 imaging kit, Invitrogen/Thermo Fisher). Cells were counterstained with 4′,6-diamidine-2-phenylindole (DAPI), embedded with Fluoromount-G (Thermo Fisher), and imaged on a Nikon TE Eclipse epifluorescence microscope equipped with a 4 × objective and NIS elements software AR 5.02.00. EdU and/or DAPI-positive cells were analyzed using the ImagePro-Plus software version 7.0 (Media Cybernetics). Statistical significance was assessed using GraphPad Prism 9.4.1 software.
# HT1080 cells [3] = assay: Lipid droplet staining (perilipin-3); assay type: cell-based, human
# Protocol: Cells were fixed for 15 min with 4% para-formaldehyde, permeabilized and blocked with 0.2% saponin/2% bovine serum albumin (BSA) for 1 hr, and immunostained for 1 hr using α-rabbit TIP47/perilipin 3 antibodies (1:100 dilution, abcam #47638) in 0.2% saponin/1% BSA. Primary antibodies were detected with Alexa Fluor 488-labeled goat anti-rabbit secondary antibodies (1:400; Molecular Probes/Thermo Fisher Scientific), and nuclei were counterstained with DAPI. Cells were mounted with Immu-Mount (Fisher Scientific), and imaged by fluorescence microscopy on a THUNDER imager (THUNDER Imager Live Cell & 3D Cell Culture & 3D Assay system, Leica DMI8; Leica Microsystems), using a 63 × objective and the Leica Application suite X software 3.7.4.23463. To determine the number of lipid droplets per cell, cell borders were defined semi-automatically, and bright objects in this region of interest were counted using the ImagePro-Plus software version 7.0. Statistical significance was assessed using GraphPad Prism 9.4.1 software.
# [4] = LC-MS quantification of intracellular CP1; assay type: in vitro ADME, human; conditions: for Abs. CP1 / Abs. Peak Area, CP1 (neg.): PGP-WT, P5
# Protocol: Cells (~1 million cells/dish) were rinsed in PBS (37 °C), trypsinized, sedimented at 300 × g, 4 °C for 4 min, washed once in PBS (4 °C), and sedimented again at 300 × g, 4 °C for 4 min. Cell pellets were snap-frozen in liquid nitrogen.
# Water-soluble metabolites were extracted with 50 µl ice-cold MeOH/H2O (80/20, v/v) containing 0.01 μM lamivudine. After centrifugation of the resulting homogenates, supernatants were transferred to a RP18 SPE (50 mg/1 mL tubes; Phenomenex) that had been activated with 0.5 mL CH3CN and conditioned with 0.5 mL of MeOH/H2O (80/20, v/v). The eluate of the RP18 SPE-column was evaporated in a SpeedVac (Savant, Thermo Fisher Scientific). Dry sample extracts were redissolved in 75 μL 5 mM NH4OAc in CH3CN/H2O (50/50, v/v). Twenty µL of supernatant were transferred to LC-vials. Metabolites were analyzed by LC-MS using the following settings: 3 μL of each sample was applied to an XBridge Premier BEH Amide (2.5 μm particles, 100 × 2.1 mm) UPLC-column (Waters). Metabolites were separated with Solvent A, consisting of 5 mM NH4OAc in CH3CN/H2O (40/60, v/v) and solvent B consisting of 5 mM NH4OAc in CH3CN/H2O (95/5, v/v) at a flow rate of 200 µL/min at 45 °C by LC using a DIONEX Ultimate 3000 UHPLC system (Thermo Fisher Scientific). A linear gradient starting after 2 min with 100% solvent B decreasing to 10% solvent B within 23 min, followed by 16 min 10% solvent B and a linear increase to 100% solvent B in 2 min was applied. Recalibration of the column was achieved by a 7 min prerun with 100% solvent B before each injection. […] All MS-analyses were performed on a high-resolution Q Exactive mass spectrometer equipped with a HESI probe (Thermo Fisher Scientific) in alternating positive- and negative full MS mode with a scan range of 69.0–1000 m/z at 70 K resolution and the following ESI source parameters: Sheath gas: 30, auxiliary gas: 1, sweep gas: 0, aux gas heater temperature: 120 °C, spray voltage: 3 kV, capillary temperature: 320 °C, S-lens RF level: 50. XIC generation and signal quantitation was performed using TraceFinder v3.3 (Thermo Fisher Scientific) integrating peaks which corresponded to the calculated monoisotopic metabolite masses (MIM + /− H + ± 3 mMU). Analyses of PGP-WT and PGP-KO cells were performed in n = 5 biologically independent experiments.
# PGP^P127E = target: T1, PGP^P127E (Mus musculus, UniProt Q8CHP8, P127E); conditions: read-out: enzyme activity in presence of CP1 relative to DMSO control (1), mPGP-P127E
# T1 sequence (Q8CHP8 1-321 P127E): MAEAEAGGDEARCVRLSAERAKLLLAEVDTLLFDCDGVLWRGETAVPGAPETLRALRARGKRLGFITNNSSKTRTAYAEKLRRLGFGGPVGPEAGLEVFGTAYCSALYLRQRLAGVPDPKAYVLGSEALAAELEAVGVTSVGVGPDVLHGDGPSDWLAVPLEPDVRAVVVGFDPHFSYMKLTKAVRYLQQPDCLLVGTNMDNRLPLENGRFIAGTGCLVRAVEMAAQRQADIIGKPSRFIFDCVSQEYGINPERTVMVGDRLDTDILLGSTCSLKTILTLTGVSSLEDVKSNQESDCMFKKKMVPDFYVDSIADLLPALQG
# PGP^172FDPH>YDEQ = target: T2, PGP^172FDPH>YDEQ (Mus musculus, UniProt Q8CHP8, F172Y/H175Q/P174E); conditions: read-out: enzyme activity in presence of CP1 relative to DMSO control (1), mPGP-172FDPH>172YDEQ
# T2 sequence (Q8CHP8 1-321 F172Y/P174E/H175Q): T1 sequence (Q8CHP8 1-321 P127E) with E127P, F172Y, P174E, H175Q
# murine PGP = target: T3, murine PGP (Mus musculus, UniProt Q8CHP8); assay: IC50 determination, murine PGP, glycerol 3-phosphate (G3P) dephosphorylation (EnzChek)
# T3 sequence (Q8CHP8 1-321): T1 sequence (Q8CHP8 1-321 P127E) with E127P
smiles,measurement,setting,value
O=C(Nc1ccccc1C(=O)O)c1ccc(Oc2ccc(C(=O)Nc3ccccc3C(=O)O)cc2)cc1 [CP1],fluorescence intensity,HT1080 cells [1]; CP1 10µM,73536.5 arbitrary units and 54985.5 arbitrary units and 58790.8 arbitrary units
same,fluorescence intensity,HT1080 cells [1]; CP1 33 µM,67669 arbitrary units and 60068 arbitrary units and 61386.5 arbitrary units
same,fluorescence intensity,HT1080 cells [1]; CP1 100 µM,68775 arbitrary units and 63101.8 arbitrary units and 70832.2 arbitrary units
same,fluorescence intensity,HT1080 cells [1]; CP1 200 µM,68392.2 arbitrary units and 53769.5 arbitrary units
same,cytotoxicity,"HT1080 cells [1]; HT1080 cells, 100 µM, 24 h",not cytotoxic
same,Edu-positive/DAPI-positive cells,HT1080 cells [2]; KO C2 CP1 (S),47.70% and 42.53% and 47.97%
same,Edu-positive/DAPI-positive cells,HT1080 cells [2]; WT D5 CP1 (S),47.76% and 46.38% and 44.69%
same,Edu-positive/DAPI-positive cells,HT1080 cells [2]; WT D5 EV CP1 (L),8.23% and 14.09% and 6.30%
same,lipid droplet (LD) accumulation,HT1080 cells [3],time- and concentration-dependent accumulation of LDs; also recorded: effectively increased LDs in PGP-WT but not in PGP-KO cells
same,less CP1 detected than expected,[4]; 100 µM CP1,39%
same,Abs. CP1,[4]; 3h 33 uM CP1,0.136 pmol and 0.115 pmol and 0.127 pmol
same,"Abs. Peak Area, CP1 (neg.)",[4]; 3h 33 uM CP1,1166078 and 1127449 and 1204353
same,Abs. CP1,[4]; 7h 100 uM CP1,0.229 pmol and 0.231 pmol and 0.241 pmol
same,"Abs. Peak Area, CP1 (neg.)",[4]; 7h 100 uM CP1,2322474 and 2574644 and 2821728
same,remaining activity at 32.36 µM,"PGP^P127E; CP1 log[M] -4.49, Exp #1-#3",15%
same,remaining activity at 15.85 µM,"PGP^P127E; CP1 log[M] -4.80, Exp #1-#3",27%
same,remaining activity at 7.943 µM,"PGP^P127E; CP1 log[M] -5.10, Exp #1-#3",45%
same,remaining activity at 3.981 µM,"PGP^P127E; CP1 log[M] -5.40, Exp #1-#3",64%
same,remaining activity at 1.995 µM,"PGP^P127E; CP1 log[M] -5.70, Exp #1-#3",80%
same,remaining activity at 1 µM,"PGP^P127E; CP1 log[M] -6.00, Exp #2-#3",85%
same,remaining activity at 0.5012 µM,"PGP^P127E; CP1 log[M] -6.30, Exp #1-#3",81%
same,remaining activity at 0.2512 µM,"PGP^P127E; CP1 log[M] -6.60, Exp #1-#3",94%
same,remaining activity at 0.1259 µM,"PGP^P127E; CP1 log[M] -6.90, Exp #1-#3",92%
same,remaining activity at 15.85 µM,"PGP^172FDPH>YDEQ; CP1 log[M] -4.80, Exp #1-#3",82%
same,remaining activity at 7.943 µM,"PGP^172FDPH>YDEQ; CP1 log[M] -5.10, Exp #1-#3",88%
same,remaining activity at 3.981 µM,"PGP^172FDPH>YDEQ; CP1 log[M] -5.40, Exp #1-#3",86%
same,remaining activity at 1.995 µM,"PGP^172FDPH>YDEQ; CP1 log[M] -5.70, Exp #1-#3",98%
same,remaining activity at 1 µM,"PGP^172FDPH>YDEQ; CP1 log[M] -6.00, Exp #2-#3",97%
same,remaining activity at 0.5012 µM,"PGP^172FDPH>YDEQ; CP1 log[M] -6.30, Exp #1-#3",88%
same,remaining activity at 0.2512 µM,"PGP^172FDPH>YDEQ; CP1 log[M] -6.60, Exp #1-#3",92%
same,remaining activity at 0.1259 µM,"PGP^172FDPH>YDEQ; CP1 log[M] -6.90, Exp #1-#3",86%
same,IC50,murine PGP,1040 ± 80 nM
same,remaining activity at 8 µM,"murine PGP; read-out: M.m PGP on G3P, activity, control = 100, CP1 log[M] -5.09691",13.8%
same,remaining activity at 4 µM,"murine PGP; read-out: M.m PGP on G3P, activity, control = 100, CP1 log[M] -5.39794",19.5%
same,remaining activity at 2 µM,"murine PGP; read-out: M.m PGP on G3P, activity, control = 100, CP1 log[M] -5.69897",32.5%
same,remaining activity at 1 µM,"murine PGP; read-out: M.m PGP on G3P, activity, control = 100, CP1 log[M] -6",53.8%
same,remaining activity at 0.5 µM,"murine PGP; read-out: M.m PGP on G3P, activity, control = 100, CP1 log[M] -6.30103",80%
same,remaining activity at […],"murine PGP; read-out: M.m PGP on G3P, activity, control = 100, CP1 log[M] -6.60206",91.2%
same,remaining activity at 0.125 µM,"murine PGP; read-out: M.m PGP on G3P, activity, control = 100, CP1 log[M] -6.90309",96.2%
same,remaining activity at 0.0625 µM,"murine PGP; read-out: M.m PGP on G3P, activity, control = 100, CP1 log[M] -7.20412",98.8%
same,remaining activity at 0.03125 µM,"murine PGP; read-out: M.m PGP on G3P, activity, control = 100, CP1 log[M] -7.50515",91.2%
